# Data published in US20200024278A1, “COMPOSITION COMPRISING ANTIBIOTIC COMPOUND AND AN HETEROCYCLIC COMPOUND AND THEIR USE IN PREVENTING OR TREATING BACTERIAL INFECTIONS” (MUTABILIS, priority 2016, published 2020).
# Assays:
# Assay in all cases: MIC, broth microdilution (CLSI), substance alone or ATB combined with compound at 4 or 8 μg/mL
# PAE 105250 = assay type: cell-based, P. aeruginosa; conditions: PAE 105250; for MIC ATB combined with Example compound: compound @4 μg/ml
# Summary of the method: (§1)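 Growth inhibition endpoint, read visually after 16-20 h at 35° C in ambient air. Cation-adjusted Mueller-Hinton broth, inoculum 5·10^5 CFU/mL, CLSI M7-A7 protocol.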
# PAE UFR48 = assay type: cell-based, P. aeruginosa; conditions: PAE UFR48; for MIC ATB combined with Example: Example @4 μg/ml; for MIC ATB combined with Example compound: compound @4 μg/ml
# Summary of the method: as §1
# PAE UFR90 = assay type: cell-based, P. aeruginosa; conditions: PAE UFR90; for MIC ATB combined with Example: Example @4 μg/ml; for MIC ATB combined with Example compound: compound @4 μg/ml
# Summary of the method: as §1
# SAU 29213 = assay type: cell-based, S. aureus; conditions: for MIC ATB combined with Example / MIC ATB combined with Example compound: SAU 29213; for MIC ATB combined with Example: Example @4 μg/ml; for MIC ATB combined with Example compound: compound @4 μg/ml
# Summary of the method: as §1
# SPN 49619 = assay type: cell-based, S. pneumoniae; conditions: SPN 49619; for MIC ATB combined with Example: Example @4 μg/ml; for MIC ATB combined with Example compound: compound @4 μg/ml
# Summary of the method: as §1
structure (smiles),measurement,setting,value
"O=C1N2CC(n3ccnn3)=C[C@H](C2)N1OS(=O)(=O)[O-].[Na+] [Example 16, sodium [(5R)-7-oxo-3-(triazol-1-yl)-1,6-diazabicyclo[3.2.1]oct-3-en-6-yl] sulfate]",MIC ATB combined with Example compound,PAE 105250; MIC of CIP,0.125 µg/mL
same,MIC ATB combined with Example compound,PAE 105250; MIC of CPO,8 µg/mL
same,MIC,PAE 105250; substance alone,32 µg/mL
same,MIC ATB combined with Example,PAE UFR48; ATB ATM,8 µg/mL
same,MIC ATB combined with Example,PAE UFR48; ATB FEP,16 µg/mL
same,MIC ATB combined with Example,PAE UFR48; ATB FOS,32 µg/mL
same,MIC ATB combined with Example,PAE UFR48; ATB MEM,0.25 µg/mL
same,MIC ATB combined with Example,PAE UFR48; ATB PIP,16 µg/mL
same,MIC ATB combined with Example compound,PAE UFR48; MIC of CIP,4 µg/mL
same,MIC ATB combined with Example compound,PAE UFR48; MIC of CPO,>32 µg/mL
same,MIC,PAE UFR48; substance alone,32 µg/mL
same,MIC ATB combined with Example,PAE UFR90; ATB ATM,16 µg/mL
same,MIC ATB combined with Example,PAE UFR90; ATB FEP,4 µg/mL
same,MIC ATB combined with Example,PAE UFR90; ATB FOS,8 µg/mL
same,MIC ATB combined with Example,PAE UFR90; ATB MEM,1 µg/mL
same,MIC ATB combined with Example,PAE UFR90; ATB PIP,>32 µg/mL
same,MIC ATB combined with Example compound,PAE UFR90; MIC of CIP,1 µg/mL
same,MIC ATB combined with Example compound,PAE UFR90; MIC of CPO,8 µg/mL
same,MIC,PAE UFR90; substance alone,>32 µg/mL
same,MIC ATB combined with Example,SAU 29213; ATB ATM,<0.031 µg/mL
same,MIC ATB combined with Example,SAU 29213; ATB FEP,<0.031 µg/mL
same,MIC ATB combined with Example,SAU 29213; ATB FOS,<=0.125 μg/mL
same,MIC ATB combined with Example,SAU 29213; ATB MEM,<=0.031 μg/mL
same,MIC ATB combined with Example,SAU 29213; ATB PIP,<0.031 µg/mL
same,MIC ATB combined with Example compound,SAU 29213; MIC of CIP,<0.031 µg/mL
same,MIC ATB combined with Example compound,SAU 29213; MIC of CLI,<0.0010 µg/mL
same,MIC ATB combined with Example compound,SAU 29213; MIC of CPO,<0.031 µg/mL
same,MIC ATB combined with Example compound,SAU 29213; MIC of DAP,<0.0020 µg/mL
same,MIC ATB combined with Example compound,SAU 29213; MIC of ERY,<0.0020 µg/mL
same,MIC ATB combined with Example compound,SAU 29213; MIC of LZD,<0.0078 µg/mL
same,MIC ATB combined with Example compound,SAU 29213; MIC of RIF,<0.00012 µg/mL
same,MIC ATB combined with Example compound,SAU 29213; MIC of SYN,<0.0020 µg/mL
same,MIC ATB combined with Example compound,SAU 29213; MIC of VAN,<0.0039 µg/mL
same,MIC,"SAU 29213; substance alone, SAU 29213 (MSSA 29213)",4 µg/mL
same,MIC ATB combined with Example,SPN 49619; ATB ATM,>32 µg/mL
same,MIC ATB combined with Example,SPN 49619; ATB FEP,<=0.031 μg/mL
same,MIC ATB combined with Example,SPN 49619; ATB FOS,8 µg/mL
same,MIC ATB combined with Example,SPN 49619; ATB MEM,<=0.031 μg/mL
same,MIC ATB combined with Example,SPN 49619; ATB PIP,0.5 µg/mL
same,MIC ATB combined with Example compound,SPN 49619; MIC of CIP,<=0.031 μg/mL
same,MIC ATB combined with Example compound,SPN 49619; MIC of CLI,<0.0010 µg/mL
same,MIC ATB combined with Example compound,SPN 49619; MIC of CPO,<=0.031 μg/mL
same,MIC ATB combined with Example compound,SPN 49619; MIC of DAP,0.031 µg/mL
same,MIC ATB combined with Example compound,SPN 49619; MIC of ERY,<0.0020 µg/mL
same,MIC ATB combined with Example compound,SPN 49619; MIC of LZD,0.125 µg/mL
same,MIC ATB combined with Example compound,SPN 49619; MIC of RIF,0.00049 µg/mL
same,MIC ATB combined with Example compound,SPN 49619; MIC of SYN,0.5 µg/mL
same,MIC ATB combined with Example compound,SPN 49619; MIC of VAN,0.0078 µg/mL
same,MIC,SPN 49619; substance alone,4 µg/mL
